Laboratory results as given in PubChem BioAssay AID2305 (GlaxoSmithKline (GSK), 2010).

The compounds below were run on P. falciparum 3D7 growth, pLDH absorbance (assay: P. falciparum 3D7 growth inhibition, dose response, strain 3D7 (AID 2305)).

`NCCNc1ccc([N+](=O)[O-])cc1C(=O)Nc1cccc(C(F)(F)F)c1` and `Cc1ccc(NC(=O)c2ccc(NCCCN3CC(C)CC(C)C3)c([N+](=O)[O-])c2)cc1F` (centres undefined) are within 1.5-fold of each other in IC50: 910 nM for the first, 710 nM for the second.

`COc1ccc(CN2CCC(CNCCc3ccccc3Cl)CC2)cc1` and `COc1cc(CCNc2nc(NCc3cccc4ccccc34)nc(N3CCC(N)CC3)n2)ccc1O` are within 1.5-fold of each other in IC50: 1110 nM for the first, 790 nM for the second.

Going from `CC1(C)N=C(N)N=C(N)N1c1cccc(I)c1` to `CC1(C)N=C(N)N=C(N)N1OCC1COc2ccccc2O1` (centres undefined), the IC50 falls from 130 nM to 30 nM (4.3-fold).

`Cc1cc2nc(-c3ccc(SCC(=O)Nc4ccc5c(c4)OCCO5)nc3)[nH]c2cc1C` and `Fc1ccc2nc(-c3cccc(-c4cccc(CNCc5cnn(-c6ccccc6)n5)c4)c3)[nH]c2c1` are within 1.5-fold of each other in IC50: 990 nM for the first, 970 nM for the second.

Going from `O=c1cc(NCCCNCc2cc3ccccc3s2)[nH]c2ccccc12` to `O=c1cc(NCCCNCc2scc(I)c2I)[nH]c2ccccc12`, the IC50 falls from 1270 nM to 590 nM (2.2-fold). The second is the more potent here.

Going from `CCOc1cc(C=Cc2nc3ccccc3c(=O)[nH]2)cc(Cl)c1O` to `Cc1cc(NN=Cc2ccccc2Cl)c2ccc(F)cc2n1`, the IC50 falls from 1180 nM to 260 nM (4.5-fold).

`O=C(NCCCNc1nc2ccccc2[nH]1)c1cccc(OC(F)(F)F)c1` and `O=C(NC1CCCCN(Cc2ccccc2O)C1)c1cccc(C(F)(F)F)c1` (centres undefined) are within 1.5-fold of each other in IC50: 570 nM for the first, 790 nM for the second.

Compared with `O=C(Nc1ccc(F)cc1F)NC1CCN(CCCCCNC(=O)[C@@H]2C[C@H]2c2ccc(Cl)c(Cl)c2)CC1`, `O=C(N[C@@H](Cc1ccccc1)C(=O)NC1CCCCCC1)c1ccc(O)c(-c2ccc(Cl)c(Cl)c2)c1` is 1.5-fold lower in IC50: 500 nM for the first, 330 nM for the second.

Compared with `Cn1c(=O)c(-c2c(Cl)cccc2Cl)cc2cnc(Nc3ccc(N4CCOCC4)cc3)nc21`, `CCCN1CCN(c2ccc(NS(=O)(=O)c3ccc(C(=O)Nc4ccc(Cl)cc4)cc3)cc2)CC1` is 6.9-fold higher in IC50: 160 nM for the first, 1110 nM for the second. The first is the more potent here.

Going from `CC(C)CCNCc1c(O)ccc2ccccc12` to `O=C(NCc1ccccc1S(=O)c1ccccc1CO)C(F)(F)F` (centres undefined), the IC50 falls from 1670 nM to 180 nM (9.3-fold).

Going from `CCN(CC)C(=NCCCCCCN=C(NC(N)=NCc1ccc(Cl)cc1)N(CC)CC)NC(N)=NCc1ccc(Cl)cc1` to `CCCCc1ccc(CCNCCCCCCNCCc2ccc(O)c(O)c2)cc1`, the IC50 rises from 230 nM to 1070 nM (4.7-fold).

First: CCOC(=O)CCCCCNC[C@H](O)c1ccccc1
Second: CCOC(=O)c1cc(C(=O)OC)c2ccccn12
The IC50 of the first is 1.5-fold higher: 330 nM for the first, 220 nM for the second. The second is the more potent here.

`CCN(CC)CCCn1c(N)c(-c2nc3ccccc3[nH]2)c2nc(C#N)c(C#N)nc21` and `COc1ccc(CNCc2cccc(-c3cccc(-c4nc5ccccc5[nH]4)c3)c2)cc1` are within 1.5-fold of each other in IC50: 270 nM for the first, 370 nM for the second.

First: N=C1SC(=Cc2cn[nH]c2-c2ccc(F)cc2)C(=O)N1c1nccs1
Second: CCN(CC)CCN(Cc1ccc(-c2ccc(C(F)(F)F)cc2)nc1)C(=O)Cn1c(SCc2ccc(F)cc2)nc(=O)c2sccc21
The IC50 of the first is 3.8-fold lower: 220 nM for the first, 840 nM for the second.

Compared with `COc1ccc2nc(-c3ccccc3)cc(NCCCNc3cc(-c4ccccc4)nc4ccc(OC)cc34)c2c1`, `c1ccc(-c2ccc(CNCc3ccc(-c4cccc(-c5nc6ccccc6[nH]5)c4)cc3)s2)nc1` is 3.3-fold higher in IC50: 120 nM for the first, 400 nM for the second.

`CS(=O)(=O)c1ccc2c(c1)CCN(CCC1CCC(NC(=O)c3cc4cccc(Br)c4[nH]3)CC1)CC2` (centres undefined) and `O=C(/C=C/c1c(Cl)cccc1Cl)NC1CCC(CN2[C@@H]3CC[C@H]2CC(c2c[nH]c4ccccc24)C3)CC1` (some centres undefined) are within 1.5-fold of each other in IC50: 1040 nM for the first, 840 nM for the second.

Compared with `Cc1ccc(C(=O)Nc2ccc(Nc3ccnc4cc(-c5ccncc5)ccc34)cc2O)cc1`, `COc1cc(-c2ccccc2)ccc1C(=O)Nc1ccc2c(c1)N(C)CCC2` is 2.8-fold lower in IC50: 930 nM for the first, 330 nM for the second.

First: Cc1cc(C(F)(F)F)n2nc(C3CCN(Cc4cc(C)c(O)c(C)c4)C3)cc2n1 (centres undefined)
Second: Cc1cccc2[nH]c(-c3ccc(-c4ccc(CN5CCN(C6CCN(C)CC6)CC5)cc4)cc3)nc12
The IC50 of the first is 7.6-fold higher: 760 nM for the first, 100 nM for the second. The second is the more potent here.

`CCCCn1c(Sc2ccc(C#N)c([N+](=O)[O-])c2)nnc1-c1ccc(OC)cc1` and `COc1ccc(-c2cc(C(=O)N[C@@H](Cc3ccccc3)C(=O)NCCN3CCCCC3)ccc2O)cc1` are within 1.5-fold of each other in IC50: 1030 nM for the first, 790 nM for the second.

`O=C(NC(c1ccccc1)c1ccccc1)C(c1cc2ccccc2o1)N1CCN(C(c2ccccc2)c2ccccc2)CC1` (centres undefined) and `CCCc1cc(=O)[nH]c(-n2nc(C)cc2NC(=O)CC(c2ccccc2)c2ccccc2)n1` are within 1.5-fold of each other in IC50: 680 nM for the first, 620 nM for the second.

`CO/C(=C\C=C\c1cc2cc(Cl)c(Cl)cc2[nH]1)C(=O)NCC(C)(C)CN(C)C` and `Cc1sc(NC(=O)c2ccc([N+](=O)[O-])cc2Cl)c(C(N)=O)c1C` are within 1.5-fold of each other in IC50: 1160 nM for the first, 930 nM for the second.

`CCn1c(-c2nonc2N)nc2c(-c3ccccc3)ncc(OCCCNCCCN3CCOCC3)c21` and `CC(C)CNCc1cccc(-c2cccc(CN(CCCN3CCN(C)CC3)C(=O)/C=C/c3ccccc3)c2)c1` are within 1.5-fold of each other in IC50: 670 nM for the first, 930 nM for the second.

`O=C(NC1CCN(CC2(c3ccccc3)CCCC2)CC1)c1[nH]ncc1Cl` and `O=C(/C=C/c1cccc(Cl)c1)N1CCC(C(O)CN2CCC3(CC2)CN(C(=O)/C=C/c2cccc(Cl)c2)c2ccccc23)CC1` (centres undefined) are within 1.5-fold of each other in IC50: 1040 nM for the first, 890 nM for the second.

Compared with `COc1cc(CCOc2c(C)nc(N)nc2N)cc(OC)c1OC`, `Cc1csc2nc(-c3ccccn3)nc(Nc3ccc4ncsc4c3)c12` is 56-fold higher in IC50: 20 nM for the first, 1110 nM for the second.

Work on `COc1ccc2[nH]cc(C3=CCN(Cc4ccccc4)CC3)c2c1` yielded an IC50 of 570 nM.
